In brackets after ≈: the same amount, converted by molar mass. Read-outs that look alike come from different tables or passages of the source.
How the values were obtained:
[1] = Heating experiment of crystal form II; format: physicochemical
Text: The resulting solids were subsequently characterized by XRPD, TGA, DSC, and ^1H NMR testings.

[2] = Determination of stability in biosolvents (HPLC purity); format: physicochemical
Procedure: (§1) The analysis and detection of samples were conducted using Shimadzu instruments. Both stability and solubility experiments were measured using the following methods.
After thorough stirring for 0.5 hours, 2 hours, and 24 hours, the mixed solutions were diluted to 10 mL, and their purity was determined using HPLC. […] Main impurities are indicated by the boxes in FIGS. 26 to 29.

[3] = Solid-state stability experiment under open conditions (HPLC purity, XRPD); format: physicochemical
Procedure: as §1
The purity was determined by HPLC.

[4] = Water activity experiment (crystal form by XRPD); format: physicochemical
Procedure: Organic solvent and water were mixed at molar ratios of 0.001:0.999, 0.2:0.8, 0.5:0.5, 0.8:0.2, and 0.999:0.001. […] The mixtures were stirred at 25° C. and 50° C. for 30 minutes, respectively, followed by filtration, and the filtrate was collected. […] The results were analyzed after stirring for 5 days and 11 days, respectively.

[5] = Tablet compression experiment; format: physicochemical; conditions: compressed at 40 MPa
[6] = Solubility experiments in biosolvents and water; format: physicochemical
Procedure: as §1
The samples were fully stirred in SGF, FaSSIF, FeSSIF, and water for 0.5 hours, 2 hours, and 24 hours before being withdrawn. Their solubility was determined using HPLC, and the solid form in the suspensions was analyzed by XRPD for its crystal form.

[7] = Wet grinding crystal transformation experiment; format: physicochemical; conditions: manual grinding with water or ethanol for 10 minutes
Procedure: 0.04 mL of water or ethanol was added, and manual grinding was performed for 2 min, 5 min, and 10 min, respectively. After each grinding period, XRPD was measured. If the solvent completely evaporates during the grinding process, an additional 0.04 mL of water or ethanol should be added to the mortar each time.

[8] = Stability of crystal form I in DMSO under high-temperature conditions (LCMS purity); format: physicochemical
Procedure: The LCMS curve was acquired using a Shimadzu instrument.
The suspension was stirred at 50° C. for 24 hours and 48 hours, respectively. The solid and filtrate were then analyzed by LCMS.

[9] = Hygroscopicity experiment (DVS); format: physicochemical
Procedure: The sample was analyzed using Intrinsic DVS ([…] UK). The test sample, approximately 20~30 mg, was placed into the sample basket and suspended in the measurement chamber. The temperature in the test chamber was maintained at 25±1° C., while the relative humidity is increased from 0% to 90% and then decreased back to 0% at a rate of 10% per hour. Mass data was recorded every 20 seconds. Each gradient pause lasts 60 minutes.
No change in crystal form was observed before and after the DVS measurement.

[10] = tested on: alternative pathway; assay: Rabbit erythrocyte hemolysis assay (alternative pathway inhibition); format: cell-based, human; conditions: rabbit erythrocytes, NHP or NHS (matrix of the value not stated)
Text: Normal Human Serum (NHS) (collected from healthy individuals), Normal Human Plasma (NHP) (Shanghai Yuduo), 96-well enzyme-linked immunosorbent assay (ELISA) plates (Jet Biofil), Japanese big-ear white rabbits (Wuhan WQJX Biotechnology), Alsever's solution (Procell), centrifuge (Thermo, PICO17), constant temperature shaker (Shanghai Fuma), decolorization shaker (Beijing Liuyi Biotechnology), cell counter (Invitrogen, Counter Countess II). GVB°, EGTA, MgCl2, NaOH, microplate reader, microplate thermostatic shaker, pipettes, etc., were the same as Experiment 1.
48% NHP: 100% NHP was diluted to a concentration of 48% with buffer.
26.4% NPS: 100% NHS was diluted to a concentration of 26.4% with buffer. […]
In a 96-well microplate, for the experimental group 50 μL of 48% NHP or 26.4% NHS and 50 μL of compound solution were added; for the positive control group 50 μL of 48% NHP or 26.4% NHS and 50 μL of buffer containing 0.2% DMSO were added; for the blank control group 50 μL of 48% inactivated NHP or 26.4% inactivated NHS and 50 μL of buffer containing 0.2% DMSO were added; for the H2O group 100 μL of double-distilled water was added. […] The plate was centrifuged at 2000 g (3380 rpm) for 5 minutes, and 100 μL of supernatant was transferred to a new 96-well microplate, after which absorbance was measured at 415 nm. […]

[11] = 25° C., DMSO-H2O, aw 0.0003-0.999
[12] = 50° C., DMSO-H2O, aw 0.0003-0.999
[13] = simulated gastric fluid, thermodynamic from solid, SGF
[14] = thermodynamic from solid, FaSSIF
[15] = thermodynamic from solid, FeSSIF
[16] = thermodynamic from solid, Water

NCc1cccc(-c2cc(COc3ccccc3CC(=O)O)cc(N3CCC4(CC3)CC4)c2)c1 [crystal form II]
Crystal form (XRPD) after heating ([1]; heated to 140° C.): no change in the crystal form
Crystal form (XRPD) after heating ([1]; heated to 200° C.): crystal form I

NCc1cccc(-c2cc(COc3ccccc3CC(=O)O)cc(N3CCC4(CC3)CC4)c2)c1 [crystal form I]
HPLC main peak purity ([2]; 0 h): 99.33%
HPLC main peak purity ([2]; FaSSIF, 0.5 h): 98.97%
HPLC main peak purity ([2]; FaSSIF, 2 h): 98.91%
HPLC main peak purity ([2]; FaSSIF, 24 h): 98.86%
HPLC main peak purity ([2]; FeSSIF, 0.5 h): 99.50%
HPLC main peak purity ([2]; FeSSIF, 2 h): 99.34%
HPLC main peak purity ([2]; FeSSIF, 24 h): 98.04%
HPLC main peak purity ([2]; FeSSIF, starting value of the decline as stated in the text): 99.56%
HPLC main peak purity ([2]; SGF, 0.5 h): 99.13%
HPLC main peak purity ([2]; SGF, 2 h): 99.10%
HPLC main peak purity ([2]; SGF, 24 h): 99.08%
HPLC main peak purity ([2]; Water, 0.5 h): 99.06%
HPLC main peak purity ([2]; Water, 2 h): 98.79%
HPLC main peak purity ([2]; Water, 24 h): 98.77. %
HPLC main peak purity ([3]; 0 days (initial)): 99.33%
HPLC main peak purity ([3]; open, 25° C./60% RH, 3 days): 99.34%
HPLC main peak purity ([3]; open, 25° C./60% RH, 7 days): 98.95%
HPLC main peak purity ([3]; open, 25° C./60% RH, 14 days): 99.43%
HPLC main peak purity ([3]; open, 25° C./90%(±5%) RH, 3 days): 99.18%
HPLC main peak purity ([3]; open, 25° C./90%(±5%) RH, 7 days): 98.96%
HPLC main peak purity ([3]; open, 25° C./90%(±5%) RH, 14 days): 99.52%
HPLC main peak purity ([3]; open, 40° C./75% RH, 3 days): 99.30%
HPLC main peak purity ([3]; open, 40° C./75% RH, 7 days): 99.00%
HPLC main peak purity ([3]; open, 40° C./75% RH, 14 days): 99.48%
Crystal form (XRPD) after storage ([3]; open, 60° C., 25° C./60% RH, 40° C./75% RH, 25° C./90(±5)% RH, 14 days): remained unchanged
HPLC main peak purity ([3]; open, 60° C., 3 days): 99.36%
HPLC main peak purity ([3]; open, 60° C., 7 days): 98.92%
HPLC main peak purity ([3]; open, 60° C., 14 days): 99.44%
Result (5 days): solid form ([4]; 25° C., ACN-H2O, aw 0.90-1.00): Crystal form I
Result (11 days): solid form ([4]; 25° C., ACN-H2O, aw 0.90-1.00): Crystal
Result (5 days): solid form [4, 11]: Crystal form I
Result (11 days): solid form [4, 11]: Crystal
Result (5 days): solid form ([4]; 25° C., IPA-H2O, aw 0.003-0.99): Crystal form I
Result (11 days): solid form ([4]; 25° C., IPA-H2O, aw 0.003-0.99): Crystal
Result (5 days): solid form ([4]; 50° C., ACN-H2O, aw 0.01-1.00): Crystal form I
Result (11 days): solid form ([4]; 50° C., ACN-H2O, aw 0.01-1.00): Crystal
Result (5 days): solid form [4, 12]: Crystal form I
Result (11 days): solid form [4, 12]: Crystal
Result (5 days): solid form ([4]; 50° C., IPA-H2O, aw 0.003-0.99): Crystal form I
Result (11 days): solid form ([4]; 50° C., IPA-H2O, aw 0.003-0.99): Crystal
Crystal form (XRPD) after tablet compression [5]: remained unchanged
solubility ([6]; Water, 0.5 h): LOQ
Crystal form (XRPD) of suspended solid ([6]; after stirring for 24 hours in FaSSIF, FeSSIF, and water): remained unchanged
solubility at 0.5 h ([6]; simulated gastric fluid, thermodynamic from solid, SGF, 0.5 h): > 5000 µg/mL
solubility at 2 h [6, 13]: > 5000 µg/mL
solubility at 24 h [6, 13]: > 5000 µg/mL
solubility ([6]; simulated gastric fluid, thermodynamic from solid, SGF, read-out: solubility in SGF): > 5000 µg/mL
solubility at 0.5 h ([6]; thermodynamic from solid, FaSSIF, 0.5 h): 54 µg/mL (≈ 118 µM)
solubility at 2 h [6, 14]: 66 µg/mL (≈ 145 µM)
solubility at 24 h [6, 14]: 75 µg/mL (≈ 164 µM)
solubility ([6]; thermodynamic from solid, FaSSIF, FeSSIF, and water, read-out: solubility in FaSSIF, FeSSIF, and water): < 730 µg/mL
solubility at 0.5 h ([6]; thermodynamic from solid, FeSSIF, 0.5 h): 630 µg/mL (≈ 1380 µM)
solubility at 2 h [6, 15]: 700 µg/mL (≈ 1530 µM)
solubility at 24 h [6, 15]: 730 µg/mL (≈ 1600 µM)
solubility at 2 h [6, 16]: 0.2 µg/mL (≈ 0.438 µM)
solubility at 24 h [6, 16]: 0.58 µg/mL (≈ 1.27 µM)
Crystal form (XRPD) after wet grinding [7]: remained unchanged
Purity by LCMS (254 nm) ([8]; crystal form I before stirring): 99.06%
Purity by LCMS (254 nm) ([8]; stirred in DMSO at 50° C. for 24 hours, filtrate): 98.71%
Purity by LCMS (254 nm) ([8]; stirred in DMSO at 50° C. for 24 hours, solid): 99.48%
Purity by LCMS (254 nm) ([8]; stirred in DMSO at 50° C. for 48 hours, filtrate): 97.14%
Purity by LCMS (254 nm) ([8]; stirred in DMSO at 50° C. for 48 hours, solid): 98.92%
Crystal form (XRPD) before and after the DVS measurement [9]: No change
weight gain (DVS) ([9]; 0-80% RH, 25° C.): 0.55%
hygroscopicity ([9]; DVS): slight hygroscopicity

NCc1cccc(-c2cc(COc3ccccc3CC(=O)O)cc(N3CCC4(CC3)CC4)c2)c1 [Compound of formula A, 2-(2-((3′-(aminomethyl)-5-(6-azaspiro[2.5]octan-6-yl)-[1,1′-biphenyl]-3-yl)methoxy)phenyl)acetic Acid]
IC50 [10]: 41 nM

Source: patent publication US20260265203A1, “CRYSTAL FORMS OF NITROGEN-CONTAINING SPIRO COMPOUND, PREPARATION METHOD THEREFOR AND USE THEREOF” (WUHAN CREATERNA SCIENCE AND TECHNOLOGY CO., LTD., priority 2023, published 2026)
